Source: patent US20190247398A1, “FORMULATIONS OF A MACROCYCLIC TRK KINASE INHIBITOR” (Array BioPharma Inc., priority 2017, published 2019)
Where two headings read alike, the source gives them in different places.

What was measured:
Type in all cases: physicochemical
[1] = Dynamic vapor sorption (DVS)
Experimental: Approximately, 10 mg of sample was placed into a mesh vapor sorption balance pan and loaded into a DVS-1 dynamic vapor sorption balance by Surface Measurement Systems. The sample was subjected to a ramping profile from 40-90% relative humidity (RH) at 10% increments, maintaining the sample at each step until a stable weight had been achieved (99.5% step completion). After completion of the sorption cycle, the sample was dried using the same procedure to 0% RH and then a second sorption cycle back to 40% RH. The weight change during the sorption/desorption cycles were plotted, allowing for the hygroscopic nature of the sample to be determined. XRPD analysis was then carried out on any solid retained.

[2] = Salt stability studies (40° C./75% RH for 1 week, XRPD)
Experimental: Recovered salts were placed in an oven at 40° C./75% RH for 1 week, and the resultant materials were analyzed by XRPD to determine any changes to form or crystallinity.

[3] = 1 week stability tests (40° C./75% RH, 80° C., ambient light; XRPD and UPLC)
Thermodynamic solubility = details: for solubility thermodynamic at 24 h: thermodynamic from solid, ambient temperature, read-out: Concentration (thermodynamic solubility)
Experimental: Thermodynamic solubility studies were carried out as follows: 10 mg of prepared salts were suspended in pH 1, 4.5, 6.8 and un-buffered water (300 μL). The pH of the slurries was measured and adjusted accordingly using either 0.2M HCl solution or 0.2M sodium hydroxide solution. The slurries were agitated for 24 hours at ambient temperature using an incubator shaker.

[4] = Salt disproportionation studies; details: deionized water, 24 h, ambient temperature
Experimental: Salt disproportionation studies were carried out as follows: 20 mg of prepared salts were weighed into a vial and 0.5 mL of deionized water was added. The samples were then agitated for 24 h at ambient temperature. The pH of the samples was taken pre- and post-agitation. Any solids recovered were submitted for XRPD analysis to determine any changes to form.

[5] = Hydration screen (acetone/water mixtures of various water activities); details: ambient
Experimental: Hydration screen was carried out as follows: 10 mg of prepared salts were suspended in several acetone/water mixtures of various water activities (low: aw=0.281, medium: aw=0.776 and high: aw=0.919) and agitated at ambient temperatures for 24 hr. Any recovered solids were submitted for XRPD analysis to determine any changes to form.

[6] = Gravimetric vapor sorption (GVS)
Experimental: Approximately 10-20 mg of sample was placed into a mesh vapor sorption balance pan and loaded into an IGASorp Moisture Sorption Analyzer balance by Hiden Analytical. […] After completion of the sorption cycle, the sample was dried using the same procedure to 0% RH, and finally taken back to the starting point of 40% RH. The weight change during the sorption/desorption cycles were plotted, allowing for the hygroscopic nature of the sample to be determined.

[7] = pH 6.8 potassium phosphate buffer, aqueous buffer, pH 6.8 buffer
[8] = simulated gastric fluid, pH 1 buffer
[9] = high water activity aw=0.919, 24 hr
[10] = low water activity aw=0.281, 24 hr
[11] = medium water activity aw=0.776, 24 hr

SMILES	changes to form or crystallinity after stability conditions (XRPD) ([2]; salt recovered from acetone)	change in purity after 1 week stability test (UPLC) ([3]; 40° C./75% RH)	change in purity after 1 week stability test (UPLC) ([3]; 80° C.)	change in purity after 1 week stability test (UPLC) ([3]; ambient light)	solubility thermodynamic at 24 h (Thermodynamic solubility; aqueous buffer, pH 4.5 buffer) [µg/mL]	thermodynamic solubility (in words) (Thermodynamic solubility; pH 1)	solids recovered after thermodynamic solubility study (XRPD) (Thermodynamic solubility; pH 4.5)	thermodynamic solubility (in words) (Thermodynamic solubility; pH 4.5)	solids recovered after thermodynamic solubility study (XRPD) (Thermodynamic solubility; pH 6.8)	thermodynamic solubility (in words) (Thermodynamic solubility; pH 6.8)	solubility thermodynamic at 24 h (Thermodynamic solubility; [7]) [µg/mL]	solubility thermodynamic at 24 h (Thermodynamic solubility; [8]) [µg/mL]	solubility thermodynamic at 24 h (Thermodynamic solubility; un-buffered water) [µg/mL]	solids recovered after thermodynamic solubility study (XRPD) (Thermodynamic solubility; un-buffered water)	thermodynamic solubility (in words) (Thermodynamic solubility; un-buffered water)	material recovered after salt disproportionation study (XRPD) [4]	solid recovered from hydration screen (XRPD) [5, 9]	solid recovered from hydration screen (XRPD) [5, 10]	solid recovered from hydration screen (XRPD) [5, 11]	also measured
C[C@@H]1CCc2ncc(F)cc2[C@H]2CCCN2c2ccn3ncc(c3n2)C(=O)N1.O=C(O)CC(O)(CC(=O)O)C(=O)O [Compound 1 citrate]	a decrease to crystallinity but no change to form	no change to purity	no change to purity	no change to purity	300	high solubility	Compound 1 citrate	lower solubility	poorly crystalline free base	lower solubility	900	18600	21000	Compound 1 citrate	highly soluble	poorly crystalline citrate salt	poorly crystalline citrate salt	poorly crystalline citrate salt	unknown form, referred to here as Form B	hygroscopicity by DVS (in words) ([1]; DVS humidity conditions): low hygroscopicity; change in crystalline form after exposure to DVS conditions (post-DVS XRPD) ([1]; after DVS cycle): no changes in crystalline form; mass uptake (DVS) ([1]; at 90% RH): around 1.8%; changes to form or crystallinity after stability conditions (XRPD) ([2]; salt recovered from TBME): a decrease to crystallinity but no change to form; change to form after 1 week stability test (XRPD) ([3]; 40° C./75% RH): no change to form; change to form after 1 week stability test (XRPD) ([3]; 80° C.): no change to form; change to form after 1 week stability test (XRPD) ([3]; ambient light): no change to form; solids recovered after thermodynamic solubility study (XRPD) (Thermodynamic solubility; pH 1): poorly crystalline solids
CS(=O)(=O)O.C[C@@H]1CCc2ncc(F)cc2[C@H]2CCCN2c2ccn3ncc(c3n2)C(=O)N1 [Compound 1 mesylate]	no changes to crystallinity or form	no change to purity	no change to purity	no change to purity	9300	moderately soluble	mesylate salt	moderately soluble	free base	low solubility	1500	14300	9600	free base	moderately soluble	no change to form by XRPD analysis but crystallinity reduced	free base	a mixture of free base and salt	mesylate salt	RH at which the material deliquesced (GVS) ([6]; GVS humidity conditions): 30 % RH; hygroscopicity by GVS (in words) ([6]; GVS humidity conditions): high hygroscopicity; change in crystalline form after exposure to GVS conditions (post-GVS XRPD) ([6]; after GVS cycle): desolvate and become the mesylate form seen in the salt screen; mass uptake (GVS) ([6]; at 90% RH): about 32%; changes to form or crystallinity after stability conditions (XRPD) ([2]; salt recovered from isopropanol): a slight increase in crystallinity but no changes to form; changes to form or crystallinity after stability conditions (XRPD) ([2]; salt recovered from methanol): a decrease in crystallinity but no changes to form
